One experiment deals with AβTotal. The experiment in a line: Amyloidβ peptide release (AβTotal) assay, AlphaLisa on supernatant of APPswe-HEK cells. It counts as cell-based, human. The note with it: 24 hours, ratio Abtot versus Ab42. How it is done:
(§1) Amyloidβ Peptide Release (Aβ42 & AβTotal) Assay to Determine IC50 Values.
(§2) Amyloidβ peptide release (Aβ42 & AβTotal) assay are performed in 384 well microtiter plates (Perkin Elmer AlphaPlate #6008350) in a final volume of 20 μl, using supernatant coming from APPswe-HEK cells exposed to test compounds. Compounds are dissolved in and diluted in 100% DMSO and incubated with APPswe-HEK cells for 24 hours a 37° C. in 5% CO2. The supernatant from APPswe-HEK cells are mixed with antibodies: for Aβ42 detection: AlphaLisa Amyloid β 1-42 Kit (Perkin Elmer AL203L) Anti-Amyloid β1-42-specific antibody acceptor beads, biotinylated anti-Amyloid “β1-42” antibody and streptavidin (SA) donor beads diluted in AlphaLisa buffer (to the instructions of the supplier). For Aβ total detection: Custom Anti-Amyloid βtotal acceptor beads (6E10 acceptor beads), biotinylated anti-Amyloid “β1-42” antibody (Perkin Elmer AL203L) and streptavidin (SA) donor beads diluted in AlphaLisa buffer (to the instructions of the supplier). After addition of supernatant to the antibody mix, the assay is incubated 4 h and 30 minutes. AmyloidP peptide release (Aβ42 & AβTotal) is measured with a Pherastar FS (BMG) multimode reader using the alphascreen module.
For orientation: Bead proximity is the source of the signal in Alpha formats.

A further experiment concerns Aβ42. The experiment in a line: Amyloidβ peptide release (Aβ42) assay, AlphaLisa on supernatant of APPswe-HEK cells. It counts as cell-based. The note with it: Homo sapiens, 24 hours incubation with compound, read-out: Ab42 IC50 Ranges. On the procedure:
as §1, §2

Some results are limits rather than exact numbers.

As a reminder, the IC50 is the concentration that inhibits the measured activity by half. In the case of `COc1cc(NC(=O)c2nnn3c2CC[C@@H]3c2ccc(Cl)cc2)ccc1-n1cnc(C)c1` [Example 30, (R)-6-(4-chlorophenyl)-N-(3-methoxy-4-(4-methyl-1H-imidazol-1-yl)phenyl)-5,6-dihydro-4H-pyrrolo[1,2-c][1,2,3]triazole-3-carboxamide], in the experiment on AβTotal, the Abtot/Ab42 selectivity ranges result is reported as “b (b: 100 fold > selectivity ≧ 50 fold)”. Also, the IC50 in the experiment with Aβ42 is no more than 150 nM.

For `Cc1cc(-c2ccc(Nc3nnn4c3CCC4c3ccc(Cl)cc3)cc2)ccn1` (stereo not drawn) [Example 9], the Abtot/Ab42 selectivity ranges entry with AβTotal is “a (a: selectivity ≧ 100 fold)”. For the same molecule, the IC50 in the experiment on Aβ42 was 150 to 500 nM.

Consider `COc1nc(NC(=O)c2nnn3c2CCCC3c2ccc(Cl)cc2)ccc1-n1cnc(C)c1` (stereo not drawn) [Example 15, 7-(4-chlorophenyl)-N-(6-methoxy-5-(4-methyl-1H-imidazol-1-yl)pyridin-2-yl)-4,5,6,7-tetrahydro-[1,2,3]triazolo[1,5-a]pyridine-3-carboxamide], for which, in the experiment on AβTotal, the Abtot/Ab42 selectivity ranges entry is reported as “c (c: 50 fold > selectivity ≧ 10 fold)”. In the experiment with Aβ42, the IC50 fell in the range of 500 to 1000 nM.
